Data taken from patent US20130011845A1, “MICRORNA REGULATING THE INSULIN SIGNALING PATHWAY, AND METHOD FOR SCREENING MATERIAL FOR CONTROLLING THE ACTION OF A TARGET THEREOF” (SNU R & DB Foundation, priority 2009, published 2013).

Experiments:
SHC1 3′UTR = assay: dual-luciferase 3′UTR reporter assay, pAC-SHC1; format: cell-based; settings: luciferase reporter with SHC1 3′UTR, human Hela cell lines; average of at least two independent experiments
Procedure: (§1) In order to determine whether the target genes identified in Example 7 are in actuality targets of miR-8 and miR-200 family miRNAs, the inventors performed cloning. In other words, […] containing the miRNA target sites. Specifically, in order to obtain cDNAs of respective target genes, from drosophila S2 cell lines or human Hela cell lines, total RNA was extracted by using RNeasy mini kit (QIAGEN, US). 1 μg of total RNA and 1 μl of Oligo-dT (Invitrogen, US) were charged with up to 50 μl of distilled water, and placed into SuperScript First-Strand Synthesis System (Invitrogen, US), followed by RT-PCR reaction. Through the reaction at 65° C. for 6 min, at 4° C. for 5 min, at 42° C. for 60 min, at 95° C. for 5 min, and at 4° C. for 5 min, cDNA was synthesized. By using the cDNA (3˜5 μg) as template, and using a primer pair on respective genes noted in Table 3 and PCR Mastermix (Promega, US), PCR was performed on 3′UTR of ush, Lap1, CG8445, dbo, Lar, Ced-12, CG12333, cbt, FOG2, SEPT7, RIN2, SHC1, HOXB5, LF11, TCF7L1, ERBB21P, ELMO2, BAP1, WDR37, KLHL20, PTPRD, RASSF2 and VAC14 from among the target genes selected in Example 7. Herein, PCRP on atro as a drosophila control gene was also performed. After the reaction was completed, the PCR product on each gene's 3′UTR region was cleaved by each of the following restriction enzymes:
(§2) Then, it was cloned into pAC5.1 luciferase vector (a kind gift of Elisa Izaurralde) cleaved by the same restriction enzymes so as to produce a reporter plasmid having a miR-8 or miR-200 family target sequence in luciferase gene's 3′UTR sequence.
(§3) Reporter plasmids and renilla luciferase expression vectors (Promega, US), as noted in Table 4, and miRNAs of miR-200 family of miR-141, miR-200a (hsa-miR-200a, SEQ ID: 87: 5′-[…]-3′), miR-200b, miR-200c (has-miR-200c, SEQ ID: 88: 5′-[…]-3′) and miR-429, and miR-8 (dme-miR-8, SEQ ID: 89: 5′-[…]-3′) were bought from Samchonri and cotransfected into drosophila S2 cell lines or human Hela cell lines. Then, the activities of luciferase were measured through dual-luciferase assay (Promega, US) by a luminometer (Biorad). Then, 7 gene pairs that respond both to miR-8 and to mir-200 family miRNAs in Drosophila and human cells, respectively were identified (see FIG. 15).

FOXO = FOXO luciferase reporter (pFK1tk-luc) assay in Hep3B cells; format: cell-based, human
From the text: The inventors analyzed the effect of miR-200 miRNAs on the downstream transducers of Akt (see FIGS. 44 to 47). Because Akt represses FOXO activity, the inventors used a luciferase reporter plasmid (pFK1tk-luc) (Biggs, W H et al., 1999, Proc Natl Acad Sci USA 96, 7421-7426) containing eight FOXO-binding sites to determine the level of FOXO activity in cultured cells. Specifically, Hep3B cells were transfected with synthesized siGFP, miR-141, miR-200a, miR-200b, miR-200c, miR-429 or siFOG2 together with pFK1tk-luc vector, and then luciferase activity was measured in the same manner as described Example 8-2. Also, Hep3B cells were transfected with luciferase, or oligonucleotides having complementary sequence to miR-141, miR-200a, miR-200b, miR-200c or miR-429 together with pFK1tk-luc vector. Then, the luciferase activity was measured in the same manner as described above. Further, Hep3B cell lines were transfected with pCK-flag (empty vector) and pCK-FOG2 produced in Example 16-1, and the luciferase activity was measured in the same manner as described above. […] Further, treating the cells with miR-200 inhibitors elevated FOXO activity (see FIG. 46).

PTPRD 3′UTR = assay: dual-luciferase 3′UTR reporter assay, pAC-PTPRD; format: cell-based; settings: luciferase reporter with PTPRD 3′UTR, human Hela cell lines; average of at least two independent experiments
Procedure: as §1, §2, §3

HOXB5 3′UTR = assay: dual-luciferase 3′UTR reporter assay, pAC-HOXB5; format: cell-based; settings: luciferase reporter with HOXB5 3′UTR, human Hela cell lines; average of at least two independent experiments
Procedure: as §1, §2, §3

ELMO2 3′UTR = assay: dual-luciferase 3′UTR reporter assay, pAC-ELMO2; format: cell-based; settings: luciferase reporter with ELMO2 3′UTR, human Hela cell lines; average of at least two independent experiments
Procedure: as §1, §2, §3

Hep3B cells = assay: MTT cellular viability assay; format: cell-based, human; settings: Hep3B cells transfected with 30 nM
Procedure: Because stimulation of PI3K and Akt is known to facilitate cell proliferation and antagonize apoptosis (Pollak, 2008), the inventors measured cellular viability with the MTT (3-(4,5-dimethylthiazol-2-yl)-2,5-diphenyltetrazolium bromide) assay in Hep3B cells. Specifically, Hep3B cells were plated in a 96-well plate, and transfected with 30 nM of synthesized siGFP, miR-141, miR-200a, miR-200b, miR-200c, miR-429 or siFOG2. Then, to the plate, 50 μl of MTT solution (2 mg/ml) (Promega, US) was added per each well, followed by culturing at 37 °C for 1 hour. Then, each well was added with 150 μl of DMSO, and measured by a microplate reader (Bio-rad, US) at a wavelength of 590 nm. Also, Hep3B cells were transfected with 200 nM of luciferase, or 200 nM of oligonucleotides having complementary sequences to miR-141, miR-200a, miR-200b, miR-200c or miR-429, and then were subjected to MTT assay in the same manner as described above.

Substance	Represion fold, SHC1 (SHC1 3′UTR)	FOXO activity (activity of luciferase, pFK1tk-luc) (FOXO)	Represion fold, PTPRD (PTPRD 3′UTR)	Represion fold, HOXB5 (HOXB5 3′UTR)	Represion fold, ELMO2 (ELMO2 3′UTR)	cell viability (MTT) (Hep3B cells)
5′-UAAUACUGUCUGGUAAAACCGU-3′ (listed as RNA, chemistry not given here) [miR-429]	2.17 fold	significantly repressed	0.75 fold	0.72 fold	0.89 fold	increased cell viability
5′-UAACACUGUCUGGUAACGAUGU-3′ (listed as RNA, chemistry not given here) [miR-200a]	1.63 fold	significantly repressed	1.25 fold	1.16 fold	1.22 fold	increased cell viability
5′-UAAUACUGCCUGGUAAUGAUGA-3′ (listed as RNA, chemistry not given here) [miR-200b]	1.41 fold	significantly repressed	0.89 fold	0.73 fold	1.04 fold	increased cell viability
5′-UAACACUGUCUGGUAAAGAUGG-3′ (listed as RNA, chemistry not given here) [miR-141]	1.64 fold	significantly repressed	0.89 fold	0.92 fold	0.73 fold	increased cell viability
